Experimental data as given in ChEMBL document CHEMBL1145334, “Structural determinants of Torpedo californica acetylcholinesterase inhibition by the novel and orally active carbamate based anti-alzheimer drug ganstigmine (CHF-2819)” (J Med Chem, 2006).
pIC50: −log10 of the molar value. Where a name gives a salt, the structure may show the parent alone.

Target: Acetylcholinesterase (Torpedo californica, UniProt P04058)
Test: Inhibition of Torpedo californica AChE
Parameters: species or system Tetronarce californica
Conditions: not given

Chain of Acetylcholinesterase (P04058 whole entry): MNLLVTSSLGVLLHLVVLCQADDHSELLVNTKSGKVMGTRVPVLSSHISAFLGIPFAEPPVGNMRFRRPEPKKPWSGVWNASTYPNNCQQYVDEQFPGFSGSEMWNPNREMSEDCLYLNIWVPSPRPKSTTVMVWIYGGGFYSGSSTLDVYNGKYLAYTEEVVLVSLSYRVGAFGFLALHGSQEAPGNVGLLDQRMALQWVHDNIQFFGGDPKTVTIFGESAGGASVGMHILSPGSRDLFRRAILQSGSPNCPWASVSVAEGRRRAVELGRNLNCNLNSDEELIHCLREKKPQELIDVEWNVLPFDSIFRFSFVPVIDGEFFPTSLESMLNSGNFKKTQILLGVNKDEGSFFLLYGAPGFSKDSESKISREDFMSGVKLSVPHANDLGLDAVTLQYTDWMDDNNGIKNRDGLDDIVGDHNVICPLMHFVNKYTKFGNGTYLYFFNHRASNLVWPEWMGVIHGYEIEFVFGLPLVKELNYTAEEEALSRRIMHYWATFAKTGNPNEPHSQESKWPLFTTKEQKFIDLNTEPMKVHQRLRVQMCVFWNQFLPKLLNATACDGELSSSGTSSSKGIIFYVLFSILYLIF

In order of falling pIC50:
1. CNC(=O)Oc1ccc2c(c1)[C@]1(C)CC[N+](C)([O-])[C@@H]1N2C (stereo partly drawn) [GENESERINE]  5.76
2. Cc1ccccc1NC(=O)Oc1ccc2c(c1)[C@]1(C)CC[N+](C)([O-])[C@@H]1N2C (stereo partly drawn)  5.39
3. CN1c2ccc(OC(=O)Nc3ccccc3)cc2[C@]2(C)CC[N+](C)([O-])[C@H]12 (stereo partly drawn)  5.32
4. CCc1ccccc1NC(=O)Oc1ccc2c(c1)[C@]1(C)CC[N+](C)([O-])[C@@H]1N2C (stereo partly drawn)  5.29
5. Cc1cccc(NC(=O)Oc2ccc3c(c2)[C@]2(C)CC[N+](C)([O-])[C@@H]2N3C)c1 (stereo partly drawn)  5.29
6. Cc1ccc(NC(=O)Oc2ccc3c(c2)[C@]2(C)CC[N+](C)([O-])[C@@H]2N3C)cc1 (stereo partly drawn)  5.12
7. CC(C)c1ccccc1NC(=O)Oc1ccc2c(c1)[C@]1(C)CC[N+](C)([O-])[C@@H]1N2C (stereo partly drawn)  5.08
8. CCCc1ccccc1NC(=O)Oc1ccc2c(c1)[C@]1(C)CC[N+](C)([O-])[C@@H]1N2C (stereo partly drawn)  5.07
9. Cc1cc(C)cc(NC(=O)Oc2ccc3c(c2)[C@]2(C)CC[N+](C)([O-])[C@@H]2N3C)c1 (stereo partly drawn)  5.07
10. CCc1cccc(NC(=O)Oc2ccc3c(c2)[C@]2(C)CC[N+](C)([O-])[C@@H]2N3C)c1 (stereo partly drawn)  5.01
11. CCN(C)C(=O)Oc1cccc([C@H](C)N(C)C)c1 [RIVASTIGMINE TARTRATE]  3.73
12. Cc1cccc(C)c1NC(=O)Oc1ccc2c(c1)[C@]1(C)CC[N+](C)([O-])[C@@H]1N2C (stereo partly drawn)  3.73

Target: T1, Acetylcholinesterase (Mus musculus) (UniProt P21836)
T1 sequence (whole entry): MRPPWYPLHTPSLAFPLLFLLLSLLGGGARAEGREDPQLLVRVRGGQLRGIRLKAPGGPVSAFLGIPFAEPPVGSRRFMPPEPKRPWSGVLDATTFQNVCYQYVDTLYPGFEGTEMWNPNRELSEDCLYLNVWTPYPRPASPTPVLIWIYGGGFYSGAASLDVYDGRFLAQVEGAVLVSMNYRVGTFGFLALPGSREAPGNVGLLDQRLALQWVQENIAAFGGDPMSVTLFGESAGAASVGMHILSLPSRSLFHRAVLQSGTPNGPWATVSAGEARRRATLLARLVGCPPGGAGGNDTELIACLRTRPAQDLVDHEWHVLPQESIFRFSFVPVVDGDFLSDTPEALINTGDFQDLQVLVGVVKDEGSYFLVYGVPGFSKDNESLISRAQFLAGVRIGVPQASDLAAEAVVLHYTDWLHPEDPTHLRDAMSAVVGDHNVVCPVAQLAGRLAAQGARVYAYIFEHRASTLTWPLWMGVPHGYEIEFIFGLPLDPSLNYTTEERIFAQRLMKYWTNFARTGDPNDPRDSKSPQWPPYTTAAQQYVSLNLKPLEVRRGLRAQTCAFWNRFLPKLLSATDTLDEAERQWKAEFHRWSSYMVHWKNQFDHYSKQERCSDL
Conditions: CD1, Brain, 1.5 mg/kg
Description: Inhibition of AChE in CD1 mouse brain at 1.5 mg/kg, po after 4 hrs

Work on `CCN(C)C(=O)Oc1cccc([C@H](C)N(C)C)c1` [RIVASTIGMINE TARTRATE] yielded an inhibition of 73%.
